Data: patent publication US20040067889A1, “Stabilization of brain natriuretic peptide (BNP) in blood samples, methods and compositions related thereto” (priority 2002, published 2004)
Like-named read-outs stand apart in the source and are kept apart here.

How the values were obtained:
Format in all cases: biochemical
[1] = test system: endogenous proteases; experiment: Stability of synthetic BNP-32 spiked into normal human plasma with protease inhibitors (chemiluminescent BNP immunoassay); conditions: for efficacy in stabilizing BNP (in words): Table 11, inhibitors at usual functional concentrations
[2] = test system: endogenous proteases; experiment: Stability of spiked synthetic BNP in bovine fetal serum with inhibitors; conditions: BFS; for Recovery versus 1st run: 48 hours at 4° C.
From the text: (§1) To generate an analytical signal to quantify the BNP concentration in the sample, two monoclonal BNP-specific antibodies (Shionogi & Co., LTD, Osaka, Japan; EP542255A1/B1; JP 3297392) were used. The first antibody was labeled with acridinium ester (AE) and the second antibody was labeled with biotin. The two antibodies bind to BNP molecules present in the plasma samples to form a complex; the formed complex was captured by paramagnetic particles (PMP) coated with streptavidin. PMP was separated by magnetic field and washed to remove non-specifically bound material. BNP-AE complexes retained on the PMP were treated with alkaline solution to produce a chemiluminescent signal, which was proportional to the amount of BNP captured; the signal was measured in relative light units or “RLU”. The assay was carried out on an automated chemiluminescent system ADIVA:Centaur™ (Bayer Corporation, Tarrytown, N.Y.) using BNP detection reagents, such as have been described. (e.g., B. Bluestein et al., 2002, “Development of an automated test for BNP as an aid in the diagnosis and evaluation of CHF on the Bayer ADVIA Centaur ACS”, Clinical Chemistry, 48(S6):A85, Abstract C37).
(§2) Experiments were performed to assess BNP stabilization in animal serum and human serum versus human plasma. Tables 9 and 10 below illustrate the efficacy of PPACK and leupeptin as BNP stabilizers in three different media, namely, bovine fetal serum (Biocell Labs, Rancho Dominguez, Calif.), normal human serum (Biocell Labs), and normal human plasma (Intergen).

[3] = test system: endogenous proteases; experiment: Stability of spiked synthetic BNP in normal human serum with inhibitors; conditions: HS; for Recovery versus 1st run: 48 hours at 4° C.
From the text: as §1, §2

[4] = IHPP + 10 ng/ml BNP, 4° C., AEBSF 200 μg/ml, antipain 100 μg/ml, benzamidine 14 mM, PPACK 50 μg/ml, or all four
[5] = HP, spiked synthetic BNP, leupeptin 0.5 μg/ml
[6] = HP, spiked synthetic BNP, leupeptin 5 μg/ml
[7] = HP, spiked synthetic BNP, leupeptin 50 μg/ml
[8] = IHP (EDTA) with synthetic BNP-32 added, each inhibitor 50 μg/ml
[9] = Plasma A, spiked synthetic BNP, inhibitor 0.62 μg/ml
[10] = Plasma A, spiked synthetic BNP, inhibitor 1.85 μg/ml
[11] = Plasma A, spiked synthetic BNP, inhibitor 5.56 μg/ml
[12] = Plasma A, spiked synthetic BNP, inhibitor 16.7 μg/ml
[13] = Plasma A, spiked synthetic BNP, inhibitor 50 μg/ml

## N=C(N)c1ccccc1 [benzamidine]
[1]
  % Recovery vs 1st run (Time 0): 82.6%
  BNP, 1st run (Time 0): 830.6 pg/mL
  BNP, 3 hours at 4° C.: 806.8 pg/mL
  BNP, 17 hours at 4° C.: 860.5 pg/mL
  BNP, 40 hours at 4° C.: 813.8 pg/mL
  BNP, 6 days at 4° C.: 686.3 pg/mL
  efficacy in stabilizing BNP (in words): intermediate efficacy
[1]; [4]
  1 week (RLU): 2568730 RLU
  2 weeks (RLU): 238972 RLU
  4 weeks % Signal Recovered: 0.8%
  4 weeks (RLU): 30024 RLU
  72 hrs (RLU): 3342787 RLU
  22 days (RLU): 108308 RLU
  Day 0 (RLU): 3927159 RLU

## CC(=O)N[C@@H](CC(C)C)C(=O)N[C@@H](CC(C)C)C(=O)N[C@H](C=O)CCCNC(=N)N [leupeptin, acetyl-leu-leu-arginal]
[1]
  % Recovery vs 1st run (Time 0): 105.5%
  BNP, 1st run (Time 0): 792.0 pg/mL
  BNP, 3 hours at 4° C.: 896.9 pg/mL
  BNP, 17 hours at 4° C.: 864.4 pg/mL
  BNP, 40 hours at 4° C.: 873.7 pg/mL
  BNP, 6 days at 4° C.: 835.9 pg/mL
[1]; [5]
  BNP, 3 hours at 4° C. before freezing: 751.3 pg/mL
  BNP, 24 hours at 4° C. before freezing: 696.1 pg/mL
  BNP, 48 hours at 4° C. before freezing: 672.6 pg/mL
  BNP, frozen w/o storage at 4° C.: 765.2 pg/mL
[1]; HP, spiked synthetic BNP, leupeptin 0.5 μg/ml, 48 hours at 4° C.
  Recovery versus 1st run: 87.9%
[1]; [6]
  BNP, 3 hours at 4° C. before freezing: 828.3 pg/mL
  BNP, 24 hours at 4° C. before freezing: 807.5 pg/mL
  BNP, 48 hours at 4° C. before freezing: 784.4 pg/mL
  BNP, frozen w/o storage at 4° C.: 679.0 pg/mL
[1]; HP, spiked synthetic BNP, leupeptin 5 μg/ml, 48 hours at 4° C.
  Recovery versus 1st run: 115.5%
[1]; [7]
  BNP, 3 hours at 4° C. before freezing: 795.6 pg/mL
  BNP, 24 hours at 4° C. before freezing: 763.0 pg/mL
  BNP, 48 hours at 4° C. before freezing: 798.3 pg/mL
  BNP, frozen w/o storage at 4° C.: 867.2 pg/mL
[1]; HP, spiked synthetic BNP, leupeptin 50 μg/ml, 48 hours at 4° C.
  Recovery versus 1st run: 92.1%
[1]; [8]
  Amount of BNP Present After 24 hr/4° C.: 2503.78
  Amount of BNP Present After 90 hr/4° C.: 2133.75
  Amount of BNP Present Before Storage, Day 0: 2290.08
[1]; IHP with synthetic BNP-32 added, each inhibitor 50 μg/ml, 90 hr/4° C. vs Day 0
  BNP Amount % Change: −6.8%
[1]; [9]
  BNP, 1st run (Time 0): 847.4 pg/mL
  BNP, 3 hours at 4° C.: 863.3 pg/mL
  BNP, 17 hours at 4° C.: 776.1 pg/mL
  BNP, 40 hours at 4° C.: 721.6 pg/mL
  BNP, 6 days at 4° C.: 373.6 pg/mL
[1]; Plasma A, spiked synthetic BNP, inhibitor 0.62 μg/ml, 6 days at 4° C.
  Recovery versus 1st run: 44.1%
[1]; [10]
  BNP, 1st run (Time 0): 841.7 pg/mL
  BNP, 3 hours at 4° C.: 873.5 pg/mL
  BNP, 17 hours at 4° C.: 859.4 pg/mL
  BNP, 40 hours at 4° C.: 795.5 pg/mL
  BNP, 6 days at 4° C.: 604.7 pg/mL
[1]; Plasma A, spiked synthetic BNP, inhibitor 1.85 μg/ml, 6 days at 4° C.
  Recovery versus 1st run: 71.8%
[1]; [11]
  BNP, 1st run (Time 0): 879.3 pg/mL
  BNP, 3 hours at 4° C.: 900.4 pg/mL
  BNP, 17 hours at 4° C.: 847.2 pg/mL
  BNP, 40 hours at 4° C.: 808.0 pg/mL
  BNP, 6 days at 4° C.: 722.8 pg/mL
[1]; Plasma A, spiked synthetic BNP, inhibitor 5.56 μg/ml, 6 days at 4° C.
  Recovery versus 1st run: 82.2%
[1]; [12]
  BNP, 1st run (Time 0): 886.7 pg/mL
  BNP, 3 hours at 4° C.: 849.8 pg/mL
  BNP, 17 hours at 4° C.: 904.5 pg/mL
  BNP, 40 hours at 4° C.: 903.1 pg/mL
  BNP, 6 days at 4° C.: 808.2 pg/mL
[1]; Plasma A, spiked synthetic BNP, inhibitor 16.7 μg/ml, 6 days at 4° C.
  Recovery versus 1st run: 91.1%
[1]; [13]
  BNP, 1st run (Time 0): 792.0 pg/mL
  BNP, 3 hours at 4° C.: 896.9 pg/mL
  BNP, 17 hours at 4° C.: 864.4 pg/mL
  BNP, 40 hours at 4° C.: 873.7 pg/mL
  BNP, 6 days at 4° C.: 835.9 pg/mL
[1]; Plasma A, spiked synthetic BNP, inhibitor 50 μg/ml, 6 days at 4° C.
  Recovery versus 1st run: 105.5%
[2]; leupeptin 0.5 μg/ml
  BNP, 3 hours at 4° C. before freezing: 639.6 pg/mL
  BNP, 24 hours at 4° C. before freezing: 537.2 pg/mL
  BNP, 48 hours at 4° C. before freezing: 424.9 pg/mL
  BNP, frozen w/o storage at 4° C.: 712.9 pg/mL
  Recovery versus 1st run: 59.6%
[2]; leupeptin 5 μg/ml
  BNP, 3 hours at 4° C. before freezing: 672.2 pg/mL
  BNP, 24 hours at 4° C. before freezing: 601.7 pg/mL
  BNP, 48 hours at 4° C. before freezing: 498.9 pg/mL
  BNP, frozen w/o storage at 4° C.: 845.0 pg/mL
  Recovery versus 1st run: 59.0%
[2]; leupeptin 50 μg/ml
  BNP, 3 hours at 4° C. before freezing: 751.1 pg/mL
  BNP, 24 hours at 4° C. before freezing: 707.0 pg/mL
  BNP, 48 hours at 4° C. before freezing: 614.5 pg/mL
  BNP, frozen w/o storage at 4° C.: 810.5 pg/mL
  Recovery versus 1st run: 75.8%
[3]; leupeptin 0.5 μg/ml
  BNP, 3 hours at 4° C. before freezing: 129.0 pg/mL
  BNP, 24 hours at 4° C. before freezing: 45.1 pg/mL
  BNP, 48 hours at 4° C. before freezing: 11.4 pg/mL
  BNP, frozen w/o storage at 4° C.: 227.7 pg/mL
  Recovery versus 1st run: 5.0%
[3]; leupeptin 5 μg/ml
  BNP, 3 hours at 4° C. before freezing: 203.0 pg/mL
  BNP, 24 hours at 4° C. before freezing: 135.6 pg/mL
  BNP, 48 hours at 4° C. before freezing: 74.3 pg/mL
  BNP, frozen w/o storage at 4° C.: 311.1 pg/mL
  Recovery versus 1st run: 23.9%
[3]; leupeptin 50 μg/ml
  BNP, 3 hours at 4° C. before freezing: 274.2 pg/mL
  BNP, 24 hours at 4° C. before freezing: 217.5 pg/mL
  BNP, 48 hours at 4° C. before freezing: 156.6 pg/mL
  BNP, frozen w/o storage at 4° C.: 297.9 pg/mL
  Recovery versus 1st run: 52.6%

## Aprotinin
[1]
  % Recovery vs 1st run (Time 0): 21.1%
  BNP, 1st run (Time 0): 792.4 pg/mL
  BNP, 3 hours at 4° C.: 849.7 pg/mL
  BNP, 17 hours at 4° C.: 680.0 pg/mL
  BNP, 40 hours at 4° C.: 490.9 pg/mL
  BNP, 6 days at 4° C.: 167.4 pg/mL
  efficacy in stabilizing BNP (in words): low efficacy
